Reference: patent US20100215618A1, “NOVEL COMPOUNDS - 644” (Arrow Therapeutics Limited, priority 2009, published 2010)
Like-named read-outs stand apart in the source and are kept apart here.

Legend:
[1] = test system: HCV replicon cells Huh 9B (genotype 1b); experiment: 1b Replicon Assay (luciferase readout); format: cell-based; conditions: Hepatitis C virus, Huh 9B replicon cells, 72 h, luciferase activity
Experimental: HCV replicon cells Huh 9B (ReBlikon), containing the firefly luciferase-ubiquitin-neomycin phosphotransferase fusion protein and EMCV-IRES driven HCV polyprotein with cell culture adaptive mutations.
Cells were cultured at 37° C./5% CO2 and split twice a week. G418 at 0.5 mg/ml was added to the culture medium but not the assay medium.
The culture medium consisted of DMEM with […] glucose and Glutamax (Gibco 61965-026) supplemented with 1× non-essential amino acids (Invitrogen 11140-035), 0.5 mg/ml G418 (Invitrogen 10131-027) and 10% Australian foetal calf serum (Invitrogen 10099-141).
Replicon cells were trypsinised and counted. Cells were diluted to 100,000 cells/ml and 100 μl used to seed one opaque white 96-well plate (for the replicon assay) and one flat-bottomed clear plate (for the tox assay) for every five compounds to be tested for IC50. Wells G12 and H12 were left empty in the clear plate as the blank. Plates were then incubated at 37° C./5% CO2 for 24 h.
On the following day compound dilutions were prepared in medium at twice their desired final concentration in a clear round bottomed plate. All dilutions have a final DMSO concentration of 1%.
Controls and compounds were transferred from the dilution plates to the assay plates (containing the cells) at 100 μl/well in duplicate wells.
Exception: no compound was added to wells A1 and A2 of either plate and 100 μl of 1% DMSO was added to these instead. Plates were then incubated at 37° C./5% CO2 for 72 h.
At the end of the incubation time, the cells in the white plate were washed in PBS (100 μL per well) and dried by tapping before addition of 204 per well of lysis buffer (25 mM tris-phosphate, 8 mM MgCl2, 1 mM DTT, 1% Triton X-100, 15% glycerol; pH to 7.8 using KH2PO4 prior to Triton X-100 and glycerol addition). Aliquots of substrate (23.5 mM beetle luciferin (Promega E1603), 26 mM ATP (Sigma O-2060) in […] Tris buffer pH 7.8) were stored at −80° C. Prior to use, required amount of luciferin was thawed and diluted 1:50 in luciferase assay buffer (20 mM Tricine (Sigma T-0377), 1.07 mM magnesium carbonate hydroxide (Sigma M-5671), 0.1 mM EDTA (Sigma E-5134), 2.67 mM MgSO4(BDH 101514Y), 33.3 mM dithiothreitol (Sigma 150460) pH 7.8).
After 5-60 min incubation in lysis buffer at room temperature, a plate was inserted into the luminometer and 100 μl luciferase assay reagent was added by the injector of the luminometer. The signal was measured using a 1 second delay followed by a 4 second measurement programme. The IC50, the concentration of the drug required for reducing the replicon level by 50% in relation to the untreated cell control value, was calculated from the plot of the percentage reduction of the luciferase activity vs. drug concentration.

[2] = test system: HCV genotype 1a replicon cells Htat2ANeo; experiment: 1a Replicon Assay (cell-based anti-NS5a ELISA); conditions: Hepatitis C virus, 72 h
Experimental: HCV genotype la replicon cells Htat2ANeo (University of Texas), containing neomycin phosphotransferase fusion protein and EMCV-IRES driven HCV polyprotein with cell culture adaptive mutations, and control cells, Et2AN.
Cells were cultured at 37° C./5% CO2 and split twice a week. G418 at 0.5 mg/ml and Blastocidin at 2 mg/ml were added to the culture medium but not the assay medium.
The culture medium consisted of DMEM with […] glucose and Glutamax (Gibco 61965-026) supplemented with 1× non-essential amino acids (Invitrogen 11140-035), 0.5 mg/ml G418 (Invitrogen 10131-027), 2 mg/ml Blastocidin (PAA) and 10% is Australian foetal calf serum (Invitrogen 10099-141).
Replicon and control cells were trypsinised and counted. Replicon cells were diluted to 90,000 cells/ml and 100 μl of this used to seed columns 2-4, […] and 10-12 of a black, clear bottom 96-well plate for every three compounds to be tested for IC50. Control cells were diluted to 60,000 cells/ml and 100 μl of this used to seed columns 1, 5 and 9 of the plate. Well H1 was left empty as the blank. Plates were then incubated at 37° C./5% CO2 for 24 h.
On the following day compound dilutions were prepared in medium at twice their desired final concentration in a clear round bottomed plate.
Controls and compounds were transferred from the dilution plate to the assay plates (containing the cells) at 100 μl/well in quadruplicate wells, one well containing control cells and 3 wells containing replicon cells.
Exception: no compound was added to row H of the plate and 100 μl of 1% DMSO was added to these instead. Plates were then incubated at 37° C. with 5% CO2 for 72 h. At the end of the incubation time, any reduction in cell viability was assayed and a cell-based enzyme linked immunosorbent assay (ELISA) was performed. The media/compound was removed from all wells and replaced with 100 μl/well serum-free media and 20 μl/well Cell Titre Blue (Promega G8081). Following incubation at 37° C./5% CO2 for 2 h plates were read on a microplate fluorometer (Molecular Devices) using an excitation of 570 nm and an emission of 590 nm The TD50, the concentration of drug required to reduce 50% of Cell Titre Blue relative to the DMSO controls, was calculated by plotting the fluorescence at 590 nm after substraction of background against drug concentration.
The media/Cell Titre Blue was removed and plates washed in PBS and gently tapped dry before addition of 50 μL per well of 75% acetone/25% methanol mixture for 3 minutes. The fixative was then discarded and wells were washed with PBS before addition of 100 μl/well of blocking solution (2% non-fat dry milk and 0.05% Tween-20 in 0.85% NaCl). Plates were then incubated at 37° C. in a shaking incubator for 60 min. Blocking solution was discarded and 50 μl of mouse anti-NS5a antibody (Virostat 1877) at 1:100 dilution in blocking buffer was added to all wells. Plates were incubated at 37° C. in a shaking incubator for 90 min Antibody was then discarded and plates were washed 4 times by immersion in 0.85% NaCl/0.05% Tween-20. After washing plates were tapped dry gently and 50 μl of secondary antibody (Dako P0260 Rabbit anti-mouse horseradish peroxidase) at 1:1000 dilution in blocking buffer was added to the wells. Plates were incubated at 37° C. in a shaking incubator for 60 min. Antibody was discarded and plates were washed 6 times by immersion in 0.85% NaCl/0.05% Tween-20 and once in PBS. Finally, 50 μl of substrate (SigmaFast ortho-phenylene diamine dihydrochloride (OPD)) was added per well and the colorimetric reaction was allowed to proceed in the dark for 5 to 15 minutes depending on the strength or the signal. The reaction was stopped by addition of 25 μl/well of 20% sulphuric acid. Plates were read on the SpectraMax microplate reader at 490 nm fixed wavelength. […]

[3] = read-out: pIC50 1b Replicon (converted)
[4] = read-out: pIC50 1a Replicon (converted)

Compound	IC50 ([1]; read-out: HCV IC50 1b Replicon) [nM]	IC50 [1, 3] [nM]	IC50 ([2]; read-out: HCV IC50 Elisa 1a) [nM]	IC50 [2, 4] [nM]
CC(C)[C@H](N)C(=O)N1CCC[C@H]1c1ncc(-c2ccc(-c3ccc(C(=O)Nc4ccc(CN5CCS(=O)(=O)CC5)cc4)cc3)cc2)[nH]1 [Example 10, 4-[4-[2-[(2S)-1-[(2S)-2-amino-3-methyl-butanoyl]pyrrolidin-2-yl]-1H-imidazol-5-yl]phenyl]-N-[4-[(1,1-dioxo-1,4-thiazinan-4-yl)methyl]phenyl]benzamide]	65.2	64.6	320	324
CC(C)(C)OC(=O)NCC(=O)N1CCC[C@H]1c1ncc(-c2ccc(-c3ccc(C(=O)Nc4ccc(CN5CCS(=O)(=O)CC5)cc4)cc3)cc2)[nH]1 [Example 12, tert-Butyl N-[2-[(2S)-2-[5-[4-[4-[[4-[(1,1-dioxo-1,4-thiazinan-4-yl)methyl]phenyl]carbamoyl]phenyl]phenyl]-1H-imidazol-2-yl]pyrrolidin-1-yl]-2-oxo-ethyl]carbamate]	106	105	164	162
COC(=O)N[C@H](C(=O)N1CCC[C@@H]1c1ncc(-c2ccc(-c3ccc(C(=O)Nc4ccc(CN5CCS(=O)(=O)CC5)cc4)cc3)cc2)[nH]1)c1ccccc1 [Example 23, Methyl N-[(1S)-2-[(2R)-2-[5-[4-[4-[[4-[(1,1-dioxo-1,4-thiazinan-4-yl)methyl]phenyl]carbamoyl]phenyl]phenyl]-1H-imidazol-2-yl]pyrrolidin-1-yl]-2-oxo-1-phenyl-ethyl]carbamate]	109	110		
COC(=O)N[C@@H](C(=O)N1CCC[C@@H]1c1ncc(-c2ccc(-c3ccc(C(=O)Nc4ccc(CN5CCS(=O)(=O)CC5)cc4)cc3)cc2)[nH]1)c1ccccc1 [Example 24, Methyl N-[(1R)-2-[(2R)-2-[5-[4-[4-[[4-[(1,1-dioxo-1,4-thiazinan-4-yl)methyl]phenyl]carbamoyl]phenyl]phenyl]-1H-imidazol-2-yl]pyrrolidin-1-yl]-2-oxo-1-phenyl-ethyl]carbamate]	101	102		
CCN(CC)[C@@H](C(=O)N1CCC[C@@H]1c1ncc(-c2ccc(-c3ccc(C(=O)Nc4ccc(CN5CCS(=O)(=O)CC5)cc4)cc3)cc2)[nH]1)c1ccccc1 [Example 25, 4-[4-[2-[(2R)-1-[(2R)-2-(diethylamino)-2-phenyl-acetyl]pyrrolidin-2-yl]-1H-imidazol-5-yl]phenyl]-N-[4-[(1,1-dioxo-1,4-thiazinan-4-yl)methyl]phenyl]benzamide]	77.9	77.6		
CN(C)[C@@H](C(=O)N1CCC[C@@H]1c1ncc(-c2ccc(-c3ccc(C(=O)Nc4ccc(CN5CCS(=O)(=O)CC5)cc4)cc3)cc2)[nH]1)c1ccccc1 [Example 26, 4-[4-[2-[(2R)-1-[(2R)-2-(dimethylamino)-2-phenyl-acetyl]pyrrolidin-2-yl]-1H-imidazol-5-yl]phenyl]-N-[4-[(1,1-dioxo-1,4-thiazinan-4-yl)methyl]phenyl]benzamide]	55.7	56.2		
COC(=O)N[C@H](C(=O)N1CCC[C@H]1c1ncc(-c2cccc(-c3ccc(C(=O)Nc4ccc(CN5CCS(=O)(=O)CC5)cc4)cc3)c2)[nH]1)C(C)C [Example 33, Methyl N-[(1S)-1-[(2S)-2-[5-[3-[4-[[4-[(1,1-dioxo-1,4-thiazinan-4-yl)methyl]phenyl]carbamoyl]phenyl]phenyl]-1H-imidazol-2-yl]pyrrolidine-1-carbonyl]-2-methyl-propyl]carbamate]	159	158		
COC(=O)N[C@@H](C)C(=O)N1CCC[C@H]1c1ncc(-c2cccc(-c3ccc(C(=O)Nc4ccc(CN5CCS(=O)(=O)CC5)cc4)cc3)c2)[nH]1 [Example 34, Methyl N-[(1S)-2-[(2S)-2-[5-[3-[4-[[4-[(1,1-dioxo-1,4-thiazinan-4-yl)methyl]phenyl]carbamoyl]phenyl]phenyl]-1H-imidazol-2-yl]pyrrolidin-1-yl]-1-methyl-2-oxo-ethyl]carbamate]	252	251		
COC(=O)N[C@H](C(=O)N1CCC[C@H]1c1ncc(-c2cccc(-c3ccc(C(=O)Nc4ccc(CN5CCS(=O)(=O)CC5)cc4)cc3)c2)[nH]1)C(C)(C)C [Example 35, Methyl N-[(1S)-1-[(2S)-2-[5-[3-[4-[[4-[(1,1-dioxo-1,4-thiazinan-4-yl)methyl]phenyl]carbamoyl]phenyl]phenyl]-1H-imidazol-2-yl]pyrrolidine-1-carbonyl]-2,2-dimethyl-propyl]carbamate]	129	129		
COC(=O)N[C@H](C(=O)N1CCC[C@H]1c1ncc(-c2cccc(-c3ccc(C(=O)Nc4ccc(CN5CCS(=O)(=O)CC5)cc4)cc3)c2)[nH]1)c1ccccc1 [Example 36, Methyl N-[(1S)-2-[(2S)-2-[5-[3-[4-[[4-[(1,1-dioxo-1,4-thiazinan-4-yl)methyl]phenyl]carbamoyl]phenyl]phenyl]-1H-imidazol-2-yl]pyrrolidin-1-yl]-2-oxo-1-phenyl-ethyl]carbamate]	15.6	15.5		
COC(=O)N[C@@H](C(=O)N1CCC[C@H]1c1ncc(-c2cccc(-c3ccc(C(=O)Nc4ccc(CN5CCS(=O)(=O)CC5)cc4)cc3)c2)[nH]1)c1ccccc1 [Example 37, Methyl N-[(1R)-2-[(2S)-2-[5-[3-[4-[[4-[(1,1-dioxo-1,4-thiazinan-4-yl)methyl]phenyl]carbamoyl]phenyl]phenyl]-1H-imidazol-2-yl]pyrrolidin-1-yl]-2-oxo-1-phenyl-ethyl]carbamate]	21.5	21.4		
